Where “and” joins values, the source holds several entries; their conditions need not be identical. Equal entries are not always repeated. Inconclusive results and toxic doses are left out. No stated cut-off is given here; in the data, active means T/C of 150% or more; inactive means T/C below 125%.
System: L1210 leukemia ip in BDF1 mice, survival T/C
Assay: NCI In Vivo Anticancer Drug Screen. Data for tumor model L1210 Leukemia (intraperitoneal) in B6D2F1 (BDF1) mice
Conditions: higher = longer survival
In short: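 Antitumor effect is assessed in tumor-bearing animals. Survival in the compound arm is compared with a vehicle-dosed control arm and expressed as their quotient.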

[1] = endpoint: mean survival time, dose: 100.0 mg/kg/injection, schedule: Q01DX009 (ip), vehicle: saline
[2] = endpoint: mean survival time, dose: 100.0 mg/kg/injection, schedule: Q04DX003 (ip), vehicle: saline
[3] = endpoint: mean survival time, dose: 200.0 mg/kg/injection, schedule: Q01DX009 (ip), vehicle: saline
[4] = endpoint: mean survival time, dose: 200.0 mg/kg/injection, schedule: Q04DX003 (ip), vehicle: saline
[5] = endpoint: mean survival time, dose: 400.0 mg/kg/injection, schedule: Q01DX009 (ip), vehicle: saline
[6] = endpoint: mean survival time, dose: 400.0 mg/kg/injection, schedule: Q04DX003 (ip), vehicle: saline
[7] = endpoint: mean survival time, dose: 100.0 mg/kg/injection, schedule: Q04DX002 (ip), vehicle: Klucel (hydroxypropylcellulose) (HPC)
[8] = endpoint: mean survival time, dose: 100.0 mg/kg/injection, schedule: Q01DX009 (ip), vehicle: Klucel (hydroxypropylcellulose) (HPC)
[9] = endpoint: mean survival time, dose: 200.0 mg/kg/injection, schedule: Q01DX009 (ip), vehicle: Klucel (hydroxypropylcellulose) (HPC)
[10] = endpoint: mean survival time, dose: 400.0 mg/kg/injection, schedule: Q01DX009 (ip), vehicle: Klucel (hydroxypropylcellulose) (HPC)
[11] = endpoint: mean survival time, dose: 50.0 mg/kg/injection, schedule: Q01DX009 (ip), vehicle: saline with Tween-80
[12] = endpoint: mean survival time, dose: 100.0 mg/kg/injection, schedule: Q01DX009 (ip), vehicle: saline with Tween-80
[13] = endpoint: mean survival time, dose: 200.0 mg/kg/injection, schedule: Q01DX009 (ip), vehicle: saline with Tween-80
[14] = endpoint: mean survival time, dose: 100.0 mg/kg/injection, schedule: Q04DX003 (ip), vehicle: Klucel (hydroxypropylcellulose) (HPC)
[15] = endpoint: mean survival time, dose: 200.0 mg/kg/injection, schedule: Q04DX003 (ip), vehicle: Klucel (hydroxypropylcellulose) (HPC)
[16] = endpoint: mean survival time, dose: 400.0 mg/kg/injection, schedule: Q04DX003 (ip), vehicle: Klucel (hydroxypropylcellulose) (HPC)
[17] = endpoint: mean survival time, dose: 100.0 mg/kg/injection, schedule: Q04DX003 (ip), vehicle: saline with Tween-80
[18] = endpoint: mean survival time, dose: 200.0 mg/kg/injection, schedule: Q04DX003 (ip), vehicle: saline with Tween-80
[19] = endpoint: mean survival time, dose: 400.0 mg/kg/injection, schedule: Q04DX003 (ip), vehicle: saline with Tween-80
[20] = endpoint: mean survival time, dose: 100.0 mg/kg/injection, schedule: Q01DX001 (ip), vehicle: Klucel (hydroxypropylcellulose) (HPC)
[21] = endpoint: mean survival time, dose: 200.0 mg/kg/injection, schedule: Q01DX001 (ip), vehicle: Klucel (hydroxypropylcellulose) (HPC)
[22] = endpoint: mean survival time, dose: 400.0 mg/kg/injection, schedule: Q01DX001 (ip), vehicle: Klucel (hydroxypropylcellulose) (HPC)

Measured: T/C

COc1cc([N+](=O)[O-])c(C)cc1NC(=O)c1ccc(OC)c(OC)c1
inactive: endpoint: mean survival time, dose: 50.0 mg/kg/injection, schedule: Q01DX009 (ip), vehicle: saline 97 % of control | [1] 96 % of control | [2] 89 % of control | [3] 96 % of control | [4] 93 % of control | [5] 97 % of control | [6] 91 % of control

Cc1c(O)cccc1F
inactive: endpoint: mean survival time, dose: 25.0 mg/kg/injection, schedule: Q04DX002 (ip), vehicle: Klucel (hydroxypropylcellulose) (HPC) 98 % of control | endpoint: mean survival time, dose: 50.0 mg/kg/injection, schedule: Q04DX002 (ip), vehicle: Klucel (hydroxypropylcellulose) (HPC) 102 % of control | [7] 111 % of control and 120 % of control

CCOc1ccc(/C=C2\N=C(c3ccccc3)OC2=O)cc1OC
inactive: [8] 109 % of control | [9] 105 % of control | [10] 102 % of control

O=S1(=O)CCCC1
inactive: [1] 104 % of control | [2] 104 % of control | [3] 98 % of control | [4] 100 % of control | [5] 96 % of control | [6] 98 % of control

CCOC(=O)C(C(=O)OCC)C1CCCC(=O)C1 (stereo unspecified)
inactive: [11] 92 % of control | [12] 96 % of control | [13] 92 % of control

O=S(=O)(ON/N=C/c1cc2ccccc2c2ccccc12)c1ccccc1
inactive: endpoint: mean survival time, dose: 75.0 mg/kg/injection, schedule: Q01DX009 (ip), vehicle: Klucel (hydroxypropylcellulose) (HPC) 96 % of control | endpoint: mean survival time, dose: 150.0 mg/kg/injection, schedule: Q01DX009 (ip), vehicle: Klucel (hydroxypropylcellulose) (HPC) 96 % of control | endpoint: mean survival time, dose: 300.0 mg/kg/injection, schedule: Q01DX009 (ip), vehicle: Klucel (hydroxypropylcellulose) (HPC) 98 % of control

COc1cc(OC)c2c(C)c(C#N)oc2c1
inactive: [14] 97 % of control | [15] 97 % of control | [16] 98 % of control

NC(=O)c1csc(CCNC(=O)c2ccccc2)n1
inactive: endpoint: mean survival time, dose: 100.0 mg/kg/injection, schedule: Q01DX001 (ip), vehicle: saline with Tween-80 100 % of control | [12] 100 % of control | [17] 95 % of control | endpoint: mean survival time, dose: 200.0 mg/kg/injection, schedule: Q01DX001 (ip), vehicle: saline with Tween-80 102 % of control | [13] 100 % of control | [18] 103 % of control | endpoint: mean survival time, dose: 400.0 mg/kg/injection, schedule: Q01DX001 (ip), vehicle: saline with Tween-80 104 % of control | endpoint: mean survival time, dose: 400.0 mg/kg/injection, schedule: Q01DX009 (ip), vehicle: saline with Tween-80 89 % of control | [19] 101 % of control

O=C(O)C1=CC(O)C(O)C(O)C1 (stereo unspecified)
inactive: endpoint: mean survival time, dose: 100.0 mg/kg/injection, schedule: Q01DX009 (ip), vehicle: saline sonified 103 % of control | [1] 104 % of control | [2] 92 % of control | endpoint: mean survival time, dose: 200.0 mg/kg/injection, schedule: Q01DX009 (ip), vehicle: saline sonified 86 % of control | [3] 107 % of control | [4] 100 % of control | [5] 106 % of control | [6] 97 % of control

Cc1ccc(S(=O)(=O)N(N)C(=O)c2ccccc2)cc1
inactive: endpoint: mean survival time, dose: 75.0 mg/kg/injection, schedule: Q01DX001 (ip), vehicle: saline 86 % of control

CC(C)(C)C(=O)CC(=O)C(C)(C)C.CC(C)(C)C(=O)CC(=O)C(C)(C)C.CC(C)(C)C(=O)CC(=O)C(C)(C)C.[Ho]
inactive: [17] 94 % of control | [18] 105 % of control | [19] 95 % of control

Nc1c(O)c(Cl)cc(Cl)c1Cl
inactive: endpoint: mean survival time, dose: 100.0 mg/kg/injection, schedule: Q04DX002 (ip), vehicle: other 110 % of control | endpoint: mean survival time, dose: 200.0 mg/kg/injection, schedule: Q04DX002 (ip), vehicle: other 107 % of control

CCCCOC(=O)c1ccc(NC(=O)Nc2ccc(SC)cc2)cc1
inactive: [8] 95 % of control | [9] 95 % of control | [10] 95 % of control

CC1Oc2ccccc2NC1=O (stereo unspecified)
inactive: endpoint: mean survival time, dose: 100.0 mg/kg/injection, schedule: Q04DX002 (ip), vehicle: saline with Tween-80 102 % of control | endpoint: mean survival time, dose: 200.0 mg/kg/injection, schedule: Q04DX002 (ip), vehicle: saline with Tween-80 106 % of control | endpoint: mean survival time, dose: 400.0 mg/kg/injection, schedule: Q04DX002 (ip), vehicle: saline with Tween-80 98 % of control

CCCCCCCCCCCC[N+]1(CCCCCCCCCCCC)CCCC(C)C1 (stereo unspecified)
inactive: endpoint: mean survival time, dose: 3.0 mg/kg/injection, schedule: Q04DX002 (ip), vehicle: Klucel (hydroxypropylcellulose) (HPC) 109 % of control | endpoint: mean survival time, dose: 6.0 mg/kg/injection, schedule: Q04DX002 (ip), vehicle: Klucel (hydroxypropylcellulose) (HPC) 87 % of control

NC(=O)NC(=O)NCc1ccccc1
inactive: [7] 98 % of control | endpoint: mean survival time, dose: 200.0 mg/kg/injection, schedule: Q04DX002 (ip), vehicle: Klucel (hydroxypropylcellulose) (HPC) 94 % of control | endpoint: mean survival time, dose: 400.0 mg/kg/injection, schedule: Q04DX002 (ip), vehicle: Klucel (hydroxypropylcellulose) (HPC) 94 % of control

CCOC(=O)c1[nH]c(C)c(/C(=N/NC(N)=O)C(=O)OC)c1C
inactive: [20] 103 % of control | [21] 110 % of control | [22] 98 % of control

O=C(O)c1cc2c3c(c1)CCCN3CCC2
inactive: endpoint: mean survival time, dose: 50.0 mg/kg/injection, schedule: Q04DX003 (ip), vehicle: saline with Tween-80 100 % of control | [17] 100 % of control | [18] 102 % of control | [19] 91 % of control

O=C(NC(c1ccccc1)C(NC(=O)c1ccccc1)c1ccccc1)c1ccccc1 (stereo unspecified)
inactive: [20] 99 % of control | [21] 99 % of control | [22] 97 % of control

CN(C)N=Nc1cccc(C(N)=O)c1
inactive: endpoint: mean survival time, dose: 5.0 mg/kg/injection, schedule: Q01DX009 (ip), vehicle: Klucel (hydroxypropylcellulose) (HPC) 104 % of control | endpoint: mean survival time, dose: 10.0 mg/kg/injection, schedule: Q01DX009 (ip), vehicle: Klucel (hydroxypropylcellulose) (HPC) 115 % of control | endpoint: mean survival time, dose: 20.0 mg/kg/injection, schedule: Q01DX009 (ip), vehicle: Klucel (hydroxypropylcellulose) (HPC) 121 % of control | endpoint: median survival time, dose: 65.0 mg/kg/injection, schedule: Q01DX001 (ip), vehicle: steriod suspending solution 105 % of control | endpoint: median survival time, dose: 65.0 mg/kg/injection, schedule: Q01DX009 (ip), vehicle: steriod suspending solution 95 % of control | endpoint: median survival time, dose: 108.0 mg/kg/injection, schedule: Q01DX001 (ip), vehicle: steriod suspending solution 120 % of control | endpoint: median survival time, dose: 180.0 mg/kg/injection, schedule: Q04DX003 (ip), vehicle: steriod suspending solution 105 % of control
active: endpoint: median survival time, dose: 39.0 mg/kg/injection, schedule: Q01DX009 (ip), vehicle: steriod suspending solution 150 % of control

NC(COC(c1ccccc1)(c1ccccc1)c1ccccc1)C(=O)O (stereo unspecified)
inactive: endpoint: mean survival time, dose: 25.0 mg/kg/injection, schedule: Q01DX009 (ip), vehicle: other 100 % of control | endpoint: mean survival time, dose: 200.0 mg/kg/injection, schedule: Q01DX009 (ip), vehicle: other 98 % of control

CC(C)C(CN)(CCN(C)C)c1cccc2ccccc12 (stereo unspecified)
inactive: [17] 88 % of control

Cn1c(=N)ccn(C2OC(CO)C(O)C2O)c1=O (stereo unspecified) (tested in a mixture with another compound)
inactive: endpoint: mean survival time, dose: 100.0 mg/kg/injection, schedule: Q01DX001 (ip), vehicle: saline 106 % of control | endpoint: mean survival time, dose: 200.0 mg/kg/injection, schedule: Q01DX001 (ip), vehicle: saline 106 % of control | endpoint: mean survival time, dose: 400.0 mg/kg/injection, schedule: Q01DX001 (ip), vehicle: saline 107 % of control

CC(=O)C1CCCC23CC(CC12)C(C)(C)C3OC=O (stereo unspecified)
inactive: [8] 96 % of control | [14] 90 % of control | [9] 100 % of control | [15] 92 % of control | [10] 107 % of control | [16] 95 % of control

C[C@H](CCC[C@H](C)OS(=O)(=O)c1ccccc1)OS(=O)(=O)c1ccccc1
inactive: endpoint: mean survival time, dose: 25.0 mg/kg/injection, schedule: Q01DX009 (ip), vehicle: saline with Tween-80 104 % of control and 112 % of control | [11] 107 % of control and 112 % of control (2×) | [12] 109 % of control | [13] 112 % of control (2×) and 117 % of control

Reference: PubChem BioAssay AID248 (DTP/NCI, 2004)
